From ChEMBL document CHEMBL4043197, “Quinazoline-1-deoxynojirimycin hybrids as high active dual inhibitors of EGFR and α-glucosidase” (Bioorg Med Chem Lett, 2017)
Structures can show the parent of a compound that is named as a salt.

Columns and labels:
[1] = Inhibition of recombinant alpha-glucosidase (unknown origin) using PNP-G as substrate preincubated for 5 mins followed by substrate addition measured after 30 mins by spectrophotometric analysis; set-up: species or system Homo sapiens
[2] = biological target: T1, Epidermal growth factor receptor (Homo sapiens, UniProt P00533); details: at 50 nM
Description: Inhibition of wild type recombinant EGFR (unknown origin) at 50 nM by ELISA relative to control

[3] = biological target: T1, Epidermal growth factor receptor; assay: Inhibition of wild type recombinant EGFR (unknown origin) by ELISA

T1 sequence (P00533 whole entry): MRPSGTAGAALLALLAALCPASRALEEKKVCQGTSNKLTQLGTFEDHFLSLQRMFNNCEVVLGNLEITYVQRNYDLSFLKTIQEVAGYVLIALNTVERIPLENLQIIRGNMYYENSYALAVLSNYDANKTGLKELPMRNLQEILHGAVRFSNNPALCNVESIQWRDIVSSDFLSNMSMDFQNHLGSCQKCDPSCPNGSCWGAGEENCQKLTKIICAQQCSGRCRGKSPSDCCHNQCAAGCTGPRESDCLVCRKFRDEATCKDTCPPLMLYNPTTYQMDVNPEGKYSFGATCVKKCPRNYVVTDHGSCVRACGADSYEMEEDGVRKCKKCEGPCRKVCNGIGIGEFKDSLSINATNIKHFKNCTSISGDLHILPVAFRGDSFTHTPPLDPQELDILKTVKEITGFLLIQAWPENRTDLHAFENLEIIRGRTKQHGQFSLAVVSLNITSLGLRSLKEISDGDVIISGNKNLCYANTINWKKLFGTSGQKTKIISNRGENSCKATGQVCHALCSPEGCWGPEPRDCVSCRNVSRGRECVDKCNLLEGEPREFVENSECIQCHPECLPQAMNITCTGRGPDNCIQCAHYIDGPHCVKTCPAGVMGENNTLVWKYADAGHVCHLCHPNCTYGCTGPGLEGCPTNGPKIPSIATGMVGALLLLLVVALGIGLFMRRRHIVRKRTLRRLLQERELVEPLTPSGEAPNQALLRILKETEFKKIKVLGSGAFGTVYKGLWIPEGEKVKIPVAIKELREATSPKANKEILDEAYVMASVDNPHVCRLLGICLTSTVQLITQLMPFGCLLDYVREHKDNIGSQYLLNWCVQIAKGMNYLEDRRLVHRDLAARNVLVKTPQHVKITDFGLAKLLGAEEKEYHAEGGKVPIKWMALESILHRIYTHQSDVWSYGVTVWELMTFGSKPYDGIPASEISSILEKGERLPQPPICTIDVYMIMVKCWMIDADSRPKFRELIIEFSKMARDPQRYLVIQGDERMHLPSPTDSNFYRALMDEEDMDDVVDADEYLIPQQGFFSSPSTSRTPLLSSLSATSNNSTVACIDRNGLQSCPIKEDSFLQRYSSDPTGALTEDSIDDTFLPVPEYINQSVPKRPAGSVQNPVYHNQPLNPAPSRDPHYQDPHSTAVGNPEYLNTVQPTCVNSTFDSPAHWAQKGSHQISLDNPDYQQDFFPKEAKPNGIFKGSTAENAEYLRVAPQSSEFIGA

SMILES	IC50 [1]	inhibition [2]	IC50 [3]
COc1cc2ncnc(Nc3ccc(OCc4cccc(F)c4)c(Cl)c3)c2cc1OCCN1C[C@H](O)[C@@H](O)[C@H](O)[C@H]1CO	64100 nM	66.5%	–
C#Cc1cccc(Nc2ncnc3cc(OC)c(OCCN4C[C@H](O)[C@@H](O)[C@H](O)[C@H]4CO)cc23)c1	7180 nM	56.4%	–
OC[C@@H]1[C@@H](O)[C@H](O)[C@@H](O)CN1Cc1ccc(-c2ccc3ncnc(Nc4ccc(F)c(Cl)c4)c3c2)o1	–	78%	–
OCCN1C[C@H](O)[C@@H](O)[C@H](O)[C@H]1CO [MIGLITOL]	2430 nM	–	–
OC[C@@H]1[C@@H](O)[C@H](O)[C@@H](O)CN1Cc1ccc(-c2ccc3ncnc(Nc4ccc(OCc5cccc(F)c5)c(Cl)c4)c3c2)o1	–	50.6%	–
COc1cc2ncnc(Nc3ccc(OCc4cccc(F)c4)c(Cl)c3)c2cc1OCCCN1C[C@H](O)[C@@H](O)[C@H](O)[C@H]1CO	21200 nM	74.9%	–
COc1cc2ncnc(Nc3ccc(F)c(Cl)c3)c2cc1OCCCN1C[C@H](O)[C@@H](O)[C@H](O)[C@H]1CO	4340 nM	83.5%	10.7 nM
C#Cc1cccc(Nc2ncnc3cc(OCCN4C[C@H](O)[C@@H](O)[C@H](O)[C@H]4CO)c(OC)cc23)c1	6250 nM	53.5%	–
COc1cc2c(Nc3ccc(F)c(Cl)c3)ncnc2cc1OCCCN1C[C@H](O)[C@@H](O)[C@H](O)[C@H]1CO	390 nM	85.3%	1.79 nM
COc1cc2c(Nc3ccc(F)c(Cl)c3)ncnc2cc1OCCN1C[C@H](O)[C@@H](O)[C@H](O)[C@H]1CO	250 nM	53.7%	–
COc1cc2c(Nc3ccc(OCc4cccc(F)c4)c(Cl)c3)ncnc2cc1OCCCN1C[C@H](O)[C@@H](O)[C@H](O)[C@H]1CO	140 nM	78.2%	4.53 nM
OC[C@H]1NC[C@H](O)[C@@H](O)[C@@H]1O [DUVOGLUSTAT HYDROCHLORIDE]	70 nM	–	–
C#Cc1cccc(Nc2ncnc3ccc(-c4ccc(CN5C[C@H](O)[C@@H](O)[C@H](O)[C@H]5CO)o4)cc23)c1	–	27.1%	–
COc1cc2ncnc(Nc3ccc(F)c(Cl)c3)c2cc1OCCN1C[C@H](O)[C@@H](O)[C@H](O)[C@H]1CO	8400 nM	65.2%	–
C#Cc1cccc(Nc2ncnc3cc(OC)c(OCCCN4C[C@H](O)[C@@H](O)[C@H](O)[C@H]4CO)cc23)c1	6190 nM	79.6%	–
C#Cc1cccc(Nc2ncnc3cc(OCCCN4C[C@H](O)[C@@H](O)[C@H](O)[C@H]4CO)c(OC)cc23)c1	90 nM	83.2%	4.87 nM
